Like-named read-outs stand apart in the source and are kept apart here.
Tests used:
[1] = male, human, in vivo, 28 days
[2] = male, human, in vivo, 7 days
hERG potassium channel = hERG potassium channel (Homo sapiens, UniProt Q12809); assay: hERG blocking; format: biochemical
[3] = Phospholipidosis assessment in MAD study (urinary di-22:6-BMP, electron microscopy of peripheral leucocytes)
Method: Therefore, the presence of phospholipidosis was determined by the concentration of di-docosahexaenoyl (22:6)-bis(monoacylglycerol) phosphate (di-22:6-BMP) in a midstream urine sample and by electron microscopy of peripheral leucocytes at Day 1 and 7 in the MAD study (Pospischil A. et al, Exp. Toxicol Pathol 2010, 62:567-571).

[4] = ECG post-hoc analysis, MAD study; format: in vivo, human; parameters: QTcF: largest median baseline increase / QTcF: largest individual increase: unit not given here
Method: The changes from baseline (pre-dose assessment on Day 1) for body weight, physical examinations, vital signs, ECG-variables and clinical laboratory variables were determined for each time point. Treatment-emergent laboratory and ECG abnormalities as well as adverse events were monitored throughout the study, up to 28 Days after the last study drug intake.
The goal of this post-hoc optimization study was to repeat the ECG assessment with an highly automated computer-assisted approach where in addition to the re-evaluation of standard intervals (PR, QRS and QT intervals), a set of parameters describing repolarization morphology were considered. The morphology indices were the TpTe interval (interval from the T wave apex to the end of the T wave), the TpTe/QT index (the ratio between the TpTe interval and the QT interval), Tamp (the amplitude in microvolt units of the T wave) and TSym (an index of repolarization morphology based on the symmetry of the T wave).
ECGs were digitally recorded using a Schiller AT104 ECG machine (500 Hz, 1 μV). Cardiac interval measurements were performed on the Global Superimposed Median Beat (GSMB), a methodology that allows measurements that consider each of the 12 individual median beats. This measurement methodology ensures that the PR, QRS, and QT interval are measured from the earliest onset in any lead to the latest deflection in any lead. Cardiologist overview of the computer-based measurements is based on the superimposed (overlapped) display of the individual median beats, to assure measurements are performed at the earliest onset of any viable lead to the latest offset of any viable lead.
The RR interval used for heart-rate correction of the QT interval (QTcB) was based on all the beats in the ten second recording.
Other cardiac parameters were computed from the 12-lead vector magnitude VM (e.g. the square root of the sum of squares at each digital sample) computed from the individual median beats. On the VM lead, the apex of the T wave is placed and used to compute the TpTe interval (using the end of the T wave from the GSMB) and the T wave amplitude (height in microvolt of the VM T peak from the isoelectric line). […] T wave symmetry index was computed using a proprietary approach based on Gaussian Mesa function modeling (GMF) of the repolarization waves (Badilini F et al. J Electrocardiol 2008, 41:588-594). Briefly, the ascending and descending phases of the VM T wave are modeled by two independent half-Gaussian curves (see FIG. 3). The standard deviations of these functions (σ1 and σ2) and indicators of the ascending/descending speed and their ratio is an index of symmetry (TSym=σ1/σ2; TSym=1 for a perfectly symmetric T wave, TSym<1 for slow-ascending/fast-descending T waves, T>1 for fast-ascending/slow-decending T waves).
For the pre-dose (baseline) ECGs, all parameters per time point were calculated as the averages of the triplicate ECGs. Computation of QTcB and QTcF was performed using the RR interval averaged from the total ECG acquisition duration (10 seconds) and in the case of the triplicate ECGs is based on the average QT and average HR of the replicate ECGs.
The over-reading cardiologist provided a clinical interpretation for each ECG at each time point. Each ECG was classified as Normal, Abnormal Clinically Insignificant (ACI), or Abnormal Clinically Significant (ACS). Results of this post-hoc analysis were used for an exposure-response evaluation for the changes in the electrophysiological parameters as a function of the concentration of KH176.

[5] = Pharmacodynamic analysis of oxidized and reduced glutathione, MAD study; format: in vivo, human; settings: Day 7, blood
Method: Blood samples for pharmacodynamic analyses were taken pre-dose and at 3, 6 and 24 h post dosing at Day 7 (MAD). All samples were stored in −80° C. until analysis. Quantification of oxidized and reduced glutathione was performed at York Bioanalytical solutions using a previously described validated method (Moore T et al, J Chromatogr B Analyt Technol Biomed Life Sci 2013, 929:51-55). Change from baseline in the concentrations of oxidized and reduced glutathione (GSH/GSSG) was calculated.

[6] = system: primary human fibroblasts from patients with Leigh syndrome; assay: Oxidative stress-induced cell death (BSO) assay, Leigh patient fibroblasts; format: cell-based; settings: Homo sapiens, in vitro fibroblast assays (Redox assay), fibroblast type not given, values match Leigh
From the text: To determine the effective concentration of the compounds (the concentrations that protect patient cells against oxidative stress-induced cell death) the applicant established an assay using stressed primary human fibroblasts from patients with Leigh syndrome, MELAS or LHON diseases. Utilising the inherent oxidative stress of fibroblasts from patients with mitochondrial disease, their oxidative burden was further increased by depleting cellular glutathione with an inhibitor of glutathione synthesis, L-buthionine-(S,R)-sulfoximine (BSO). […] Cells were seeded at a density of 3000 cells/well in a 96-well format and incubated with increasing concentrations of compounds in combination with BSO (100 μM, Sigma-aldrich). One day after treatment, the cells were washed twice and stained with a solution of 5 μM calcein-AM (Life technologies C3100MP) during 25 min in 199 medium without phenol red (Life technologies, 11043-023) at room temperature. After 2 washes with PBS (Phosphate buffered saline) the plate was read on a fluorescence plate reader (Fluostar Omega, BMG labtech) and the percentage of cell viability determined as a function of fluorescence intensity.

hERG potassium channel, sequence (Q12809 whole entry): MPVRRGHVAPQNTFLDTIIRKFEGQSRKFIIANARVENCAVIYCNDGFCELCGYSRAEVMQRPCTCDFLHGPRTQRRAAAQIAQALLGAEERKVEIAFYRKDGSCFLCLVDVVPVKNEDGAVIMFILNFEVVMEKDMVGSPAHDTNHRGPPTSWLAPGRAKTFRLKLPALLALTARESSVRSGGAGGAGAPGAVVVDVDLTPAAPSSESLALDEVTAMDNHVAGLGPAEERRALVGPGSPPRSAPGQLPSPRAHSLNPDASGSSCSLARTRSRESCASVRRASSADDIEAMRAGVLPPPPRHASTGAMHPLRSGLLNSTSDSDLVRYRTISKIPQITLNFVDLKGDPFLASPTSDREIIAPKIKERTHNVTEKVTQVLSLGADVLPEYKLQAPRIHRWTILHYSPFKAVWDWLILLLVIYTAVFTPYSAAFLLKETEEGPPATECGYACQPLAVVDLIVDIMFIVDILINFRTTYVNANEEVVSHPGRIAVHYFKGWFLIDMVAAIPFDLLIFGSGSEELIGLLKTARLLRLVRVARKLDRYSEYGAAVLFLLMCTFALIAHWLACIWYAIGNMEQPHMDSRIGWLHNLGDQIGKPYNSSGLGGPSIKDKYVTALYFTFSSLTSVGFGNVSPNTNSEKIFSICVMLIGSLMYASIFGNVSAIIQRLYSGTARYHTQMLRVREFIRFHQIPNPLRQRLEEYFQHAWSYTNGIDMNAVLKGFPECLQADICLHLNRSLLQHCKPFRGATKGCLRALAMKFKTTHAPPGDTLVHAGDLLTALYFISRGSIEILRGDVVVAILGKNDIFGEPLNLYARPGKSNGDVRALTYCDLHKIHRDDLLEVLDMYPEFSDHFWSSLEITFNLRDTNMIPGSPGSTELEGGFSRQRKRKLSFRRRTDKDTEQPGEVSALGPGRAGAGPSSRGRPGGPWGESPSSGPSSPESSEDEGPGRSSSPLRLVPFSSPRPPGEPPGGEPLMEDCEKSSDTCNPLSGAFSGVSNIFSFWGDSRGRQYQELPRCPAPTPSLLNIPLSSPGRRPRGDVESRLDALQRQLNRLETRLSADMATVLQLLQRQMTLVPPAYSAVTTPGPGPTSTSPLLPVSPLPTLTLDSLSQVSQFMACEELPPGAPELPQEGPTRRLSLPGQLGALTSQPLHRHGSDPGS

Cc1c(C)c2c(c(C)c1O)CC[C@@](C)(C(=O)N[C@@H]1CCCNC1)O2.Cl [KH176, (S)-6-hydroxy-2,5,7,8-tetramethyl-N-((R)-piperidin-3-yl)chroman-2-carboxamide hydrochloride]
AEs rated mild in severity [1]: 35 | AEs reported by subjects in the highest dose group [1]: 28 | moderate AEs [1]: 6 | severe AEs [1]: 2 | subjects reporting AEs [1]: 14 subjects | total adverse events (AEs) reported [1]: 43 | AEs rated mild in severity [2]: 27 | moderate AEs [2]: 2 | subjects reporting AEs [2]: 10 subjects | IC50 of hERG blocking relative to the Cmax for the highest dose (hERG potassium channel): 3 times | di-22:6-BMP in urine, change from Day 1 to Day 7 ([3]; MAD group III (100 mg BID)): 0.74-2.50 ng/mg creatinine | di-22:6-BMP in urine, change from Day 1 to Day 7 ([3]; MAD group IV (200 mg BID)): −1.44-1.32 ng/mg creatinine | di-22:6-BMP in urine, change from Day 1 to Day 7 ([3]; MAD group V (400 mg BID)): −0.69-1.46 ng/mg creatinine | prevalence of phospholipidosis in granulocytes or monocytes by electron microscopy ([3]; in vivo): No increased prevalence | effect on QTcF ([4]; MAD 100 mg b.i.d.): no effect | PR interval: largest median baseline increase ([4]; MAD 200 mg): 12 ms | QTcF: largest individual increase ([4]; MAD 200 mg): 28.3 | QTcF: largest median baseline increase ([4]; MAD 200 mg): 13.3 | T-wave symmetry index: largest individual increase ([4]; MAD 200 mg): 0.6 | T-wave symmetry index: largest median baseline increase ([4]; MAD 200 mg): 0.45 | TpTe interval: largest individual increase ([4]; MAD 200 mg): 46 ms | TpTe interval: largest median baseline increase ([4]; MAD 200 mg): 24 ms | QTcF, median maximum change from baseline ([4]; MAD 200 mg b.i.d., Day 5): 13 ms | PR interval: largest median baseline increase ([4]; MAD 400 mg): 19 ms | QRS interval: largest individual increase ([4]; MAD 400 mg): 15.3 ms | QRS interval: largest median baseline increase ([4]; MAD 400 mg): 9.7 ms | QTcF: largest individual increase ([4]; MAD 400 mg): 43.7 | QTcF: largest median baseline increase ([4]; MAD 400 mg): 29.2 | T-wave symmetry index: largest individual increase ([4]; MAD 400 mg): 0.99 | T-wave symmetry index: largest median baseline increase ([4]; MAD 400 mg): 0.63 | TpTe interval: largest individual increase ([4]; MAD 400 mg): 62.7 ms | TpTe interval: largest median baseline increase ([4]; MAD 400 mg): 42.3 ms | QTcF, median maximum change from baseline at trough ([4]; MAD 400 mg b.i.d., Day 6): 29 ms | GSH/GSSG ratio, change from baseline [5]: No significant alterations | EC50 ([6]; read-out: EC50): 0.182 µM | EC50 ([6]; read-out: EC50 expressed): ~0.06 µg/mL
